Experimental data as given in patent US8859021B2, “Skin appearance through gene manipulation” (Sytheon, priority 2007, dated 2014).

How the values were obtained:
EpiDerm tissues = conditions: retinol 10 μg/ml, Sytenol A 5 μg/ml, 2 days, vs 0.1% DMSO control
skin = conditions: in vivo

## C=C[C@@](C)(/C=C/c1ccc(O)cc1)CCC=C(C)C [Sytenol A, bakuchiol]
EpiDerm tissues
  Fold Change, JUP Catenin gamma (Junction plakoglobin) (Table 8): +3.83 fold
  Fold Change, JUP Catenin gamma (Table 9): +3.83 fold
  Fold Change, KIF1C Kinesin-like protein KIF1C: +2.03 fold
  Fold Change, KIF2A Kinesin-like protein KIF2A: No effect
  Fold Change, KIF4A Chromosome-associated kinesin KIF4A: +2.15 fold
  Fold Change, KIF13A Kinsein-like protein KIF13A: No effect
  Fold Change, KIF13B Kinsein-like protein KIF13B: +3.53 fold
  Fold Change, KIF17 Kinesin-like protein KIF17: +2.44 fold
  Fold Change, KIF26A Kinesin family member 26A: No effect
  Fold Change, KIFC2 Kinesin-like protein KIFC2: No effect
  Fold Change, KRT2 Keratin-2; Cytokeratin-2e (CK 2e): −3.53 fold
  Fold Change, KRT5 Keratin-5, Cytokeratin-5 (CK-5): +2.81 fold
  Fold Change, KRT7 Keratin-7; Cytokeratin-7 (CK-7): +13.75 fold
  Fold Change, KRT13 Keratin-13; Cytokeratin-13 (CK-13): +16.34 fold
  Fold Change, KRT15 Keratin-15; Cytokeratin-15 (CK-15): +11.29 fold
  Fold Change, KRT19 Keratin-19; Cytokeratin-19 (CK-19): +20.67 fold
  Fold Change, LAMA3 Laminin subunit alpha-3 precursor (Epiligrin 170 kDa subunit): +11.03 fold
  Fold Change, LAMC2 Laminin subunit gamma-2 precursor (Laminin B2t chain): +7.84 fold
  Fold Change, LRAT Lecithin retinol acyltransferase: +82.23 fold
  Fold Change, LRRC49 Tubulin polyglutamylase complex subunit 4 (PGs4): −3.47 fold
  Fold Change, MC1R, TUBB3 Tubulin beta-3-chain (Tubulin beta-III): +3.23 fold
  Fold Change, MMP9 Matrix metalloprotease-9-precursor: +12.61 fold
  Fold Change, MMP15 Matrix metalloprotease-15 precursor: +4.19 fold
  Fold Change, MMP21 Matrix metalloprotease-21 precursor: −7.89 fold
  Fold Change, MMP23A, MMP23B Matrix metalloprotease-23: −8.83 fold
  Fold Change, MMP26 Matrix metalloprotease-26-precursor (MMP-26): +2.91 fold
  Fold Change, MMP28 Matrix metalloprotease-28-precursor: +15.91 fold
  Fold Change, MYH14 Myosin-14: +5.72 fold
  Fold Change, MYL2 Myosin regulatory light chain 2: −2.50 fold
  Fold Change, MYO1F Myosin-lf (Myosin-le): +3.44 fold
  Fold Change, MYO6 Myosin-VI: +2.38 fold
  Fold Change, Mast/stem cell growth factor receptor precursor (SCFR) (Proto-oncogene tyrosine-protein kinase kit (c-kit)): −2.31 fold
  Fold Change, NDST4 N-heparan sulfate sulfotransferase 4: +4.43 fold
  Fold Change, NEIL2 DNA glycosylase/AP lyase Neil2: +4.17 fold
  Fold Change, NF-kappa-B-activating protein: −2.32 fold
  Fold Change, NGRN, TTLL13 Tubulin tyrosine ligase-like family, member 13: +12.65 fold
  Fold Change, NT5C1B, RDH14 Retinol dehydrogenase 14 (Alcohol dehydrogenase PAN20): −3.57 fold
  Fold Change, Nuclear factor Kappa B p105 unit (NF-kappa-B) (DNA-binding factor KBF 1): −2.01 fold
  Fold Change, PARP2 Poly (ADP-ribose) polymerase 2: +1.46 fold
  Fold Change, PARP9 Poly (ADP-ribose) polymerase 9: +7.74 fold
  Fold Change, PARP12 Poly (ADP-ribose) polymerase 12: +6.05 fold
  Fold Change, PARP15 Poly (ADP-ribose) polymerase 15: No effect
  Fold Change, PCDH11X Procadherin-11: +10.15 fold
  Fold Change, PCDH18 Procadherin-18-precursor: No effect
  Fold Change, PCDH19 Procadherin-19-precursor: No effect
  Fold Change, PCDHB1 Procadherin-beta-1-precursor: +2.00 fold
  Fold Change, PCDHB2 Procadherin-beta-2-precursor: +18.74 fold
  Fold Change, PCDHB3 Procadherin-beta-3-precursor: No effect
  Fold Change, PCDHB4 Procadherin-beta-4-precursor: −7.81 fold
  Fold Change, PFN4 Profilin-4 (Profilin IV): No effect
  Fold Change, PI3 Elastase-specific inhibitor: +2.72 fold
  Fold Change, Protein Kinase B (RAC-alpha serine/threonine-protein kinase) (RAC-PK-alpha): −3.47 fold
  Fold Change, RARRES1 Retinoic acid receptor responder protein 1: +12.87 fold
  Fold Change, RBP1 Cellular Retinol-binding protein-I: +4.17 fold
  Fold Change, RBP2 Cellular Retinol-binding protein-II: +4.12 fold
  Fold Change, RBP7 Cellular retinoic acid-binding protein 4: +3.09 fold
  Fold Change, RETSAT All-trans-retinol 13,14-reductase precursor: −2.84 fold
  Fold Change, SELE E-selection precursor (Endothelial leukocyte adhesion molecule 1) (ELAM-1): No effect
  Fold Change, SERPINB1 Leukocyte elastase inhibitor: +6.09 fold
  Fold Change, SIR2-like protein1/NAD-dependent deacetylase sirtuin-1 (hSIRT1): −1.54 fold
  Fold Change, SIR2-like protein2/NAD-dependent deacetylase sirtuin-2: +1.52 fold
  Fold Change, SIR2-like protein7/NAD-dependent deacetylase sirtuin-7: +2.47 fold
  Fold Change, SRRM1 Serine/arginine repetitive matrix protein 1 (SR-related nuclear matrix protein 160 kDa) (SRm160): +3.13 fold
  Fold Change, TBCEL Tubulin-specific chaperone cofactor E-like protein (EL): No effect
  Fold Change, TTBK1 Tau-tubulin kinase 1: No effect
  Fold Change, TTLL1 Tubulin polyglutamylase complex subunit 3 (PGs3): +2.07 fold
  Fold Change, TUBB2B Tubulin beta-2B chain: −3.31 fold
  Laminins gene regulation (in words): up-regulate
skin
  Primary skin irritation (edema or erythema): NON-PRIMARY IRRITANT
